Results taken from patent EP0082667A1, “Pharmaceutical compositions” (BEECHAM GROUP PLC, priority 1981, dated 1983).
Read-outs that look alike come from different tables or passages of the source. Each block holds one compound with its values, some of them ahead of it.

Tests used:
[1] = test system: KOS strain of Herpes simplex type 1 virus in Vero cell monolayers; experiment: Plaque inhibition assay of sera from dosed mice (biological assay of antiviral activity in serum); format: cell-based; details: inferred from comparison of serum bioassay with HPLC levels of BVDU and metabolite
Procedure: (§1) A single 100 mg/kg dose of BVDU, alone or in combination with 100 mg/kg or 200 mg/kg of probenecid, was administered as a suspension in carboxymethyl cellulose'to groups of 3 starved female Balb/c mice. Blood was collected at 30, 75 (or 85) and 120 minutes after dosing and the serum separated and stored at -20°C.
(§2) Heat inactivated sera from single mice were titrated in plaque inhibition assays using the KOS strain of Herpes simplex type 1 virus in Vero cell monolayers. Antiviral activity is calculated by extrapolation from a standard inhibition dose response curve for BVDU and is quoted as the equivalent concentration of BVDU (in pg/mL) giving the same activity in cell culture.
(§3) Mice dosed with BVDU and serum assayed at 30 and 85 minutes atter drug administration.

[2] = HPLC assay of BVDU, BVDU metabolite and probenecid in mouse serum; format: in vivo, female Balb/c mice; details: for concentration at 1.25 h: Experiment 2, 75 mins after dosing; for concentration at 2 h: Experiment 2, 120 mins after dosing
Procedure: as §1
Instrument: Waters H.P.L.C. Column: RCM 100 C18 Reverse Phase Radical Compression Column Solvents: Solvent (A) 0.05M Ammonium Acetate at pH4.5 Solvent (B) 80% Methanol, 10% Water, 10%(A) Conditions: 50% (B) Detector wavelength: 250 mp Solvent Flow: 1 and 3 mL/min.
Mouse serum samples (90 pL each) were treated with 16% aqueous trichloroacetic acid solution (90 µL) to deposit all proteins and the samples spun down using a micro centrifuge. The supernatant portions were assayed by injection (20 µL) into a reverse phase HPLC column). […] Under these conditions, the BVDU metabolite had retention time of 10.8 min and BVDU 11.6 min. The amounts of BVDU and Probenecid were calculated by comparison with an injected known amount of.each drug. The amounts of BVDU metabolite were calculated by assuming the same detector response as BVDU. All calculations were then extrapolated to give the amount of each component present in each serum sample in pg/mL.
as §3
Mice dosed with BVDU or combinations of BVDU and Probenecid and the serum assayed by HPLC at 30, 75 and 120 minutes after drug administration.

[3] = Plaque inhibition assay of sera from dosed mice (biological assay of antiviral activity in serum); format: cell-based, Herpes simplex type 1 virus; details: Experiment 1, single 100 mg/kg dose of BVDU, mouse serum, read-out: Antiviral activity in serum (BVDU equiv (µg/mL) ± Standard Deviation)
Procedure: as §1, §2, §3

[4] = test system: herpes simplex virus type 1 (strain SC-16); experiment: Hairless mouse cutaneous herpesvirus model (lesion scoring); format: in vivo, adult hairless (HrHr) female mice; details: each x one mouse, BVDU 100mg/kg or BVDU/Probenecid 100/200mg/kg
Procedure: When hairless mice are infected with herpesvirus by dermal scaritication, vesicles appear at the site ot inoculation b days later. These rapidly coalesce to form a spreading unilateral lesion involving one hind quarter, leading eventually to ascending paralysis and death. The ettect ot treatments is assessed by a scoring method as lesions develop.
uroups ot lu adult hairless (HrHr) female mice were anaesthetized using ether and then infected with herpes simplex virus type 1 (strain SC-16) by scarifying an area =1cm^2 at a site parallel with the top of the left hind limb, just below the midline, and introducing a drop ot virus-containing solution to tnis site. single dally doses ot placebo, Bvuu (100mg/kg/dose) or a 1:2 mixture or BVDU and probenecid (100/200mg/kg/dose) were administered orally for seven days, commencing 24 hours after intection. From 4 days atter infection individual mice were examined daily and scored according to the severity ot infection.

[5] = Detection of BVDU and metabolite in urine of the dosed animals; format: in vivo, mice
[6] = test system: herpes simplex virus type 1 (strain SC-16); experiment: Mouse ear herpesvirus model (virus replication and ear inflammation); format: in vivo, female Balb/c mice; details: for Virus titre (log10 p.f.u./ear) / Difference in ear thickness between uninfected and infected ears (mm x 10^-2): oral 3 x daily day 0 to day 4, BVDU 100mg/kg/dose or BVDU/Probenecid 100/200mg/kg/dose
Procedure: 1. Mouse Ear Herpesvirus Model (Reference, H.J. Field, Antimicrob. Ag. Chemother., 21, 744 (1982))
This model is based upon comparisons of viral replication in, and intlammation of, the ears of untreated or treated mice atter infection with herpesvirus.
The left pinna of female Balb/c mice were infected intradermally with 10^5 PFU of herpes simplex virus type 1 (strain SC-16) suspended in 2U^gl of Eagle minimum essential medium. The mice were treated orally 3 times daily from the time of infection until day +4 with BVDU at 100mg/kg/dose or a 1:2 mixture of BVDU and probenecid (100/200mg/kg/dose). At selected times after infection groups of three mice were killed and the ear thickness of both the left and right ears measured using a micrometer gauge. The left ears were then removed and placed individually into 3ml of phosphate buffered saline. Samples were homogenised and sonicated. After centrifugation the supernatant was removed and assayed immediately in a plaque assay in Vero cells.

[7] = single dose, probenecid 200 mg/kg alone or 100 or 200 mg/kg with BVDU 100 mg/kg, read-out: Concentration (µg/mL) in Serum Probenecid
[8] = Day +8, single daily oral doses for seven days
[9] = Day +11, single daily oral doses for seven days
[10] = mouse, in vivo, 100 mg/kg, single dose, BVDU 100 mg/kg alone or with probenecid 100 or 200 mg/kg, read-out: Concentration (µg/mL) in Serum BVDU

SMILES: O=c1[nH]cc(/C=C/Br)c(=O)[nH]1 [BVDU Metabolite]
antiviral activity [1]: no significant antiviral activity

concentration at 0.5 h ([2]; Experiment 2, 30 mins after dosing, single dose, probenecid 200 mg/kg alone or 100 or 200 mg/kg with BVDU 100 mg/kg, read-out: Concentration (µg/mL) in Serum Probenecid): 3.8 µg/mL
concentration at 1.25 h [2, 7]: 3.2 µg/mL
concentration at 2 h [2, 7]: 2.3 µg/mL
SMILES: CCCN(CCC)S(=O)(=O)c1ccc(C(=O)O)cc1 [Probenecid]

SMILES: O=c1[nH]c(=O)n([C@H]2C[C@H](O)[C@@H](CO)O2)cc1/C=C/Br [BVDU, E-5-(2-bromovinyl)-2'-deoxyuridine]
concentration at 0.5 h ([3]; 30 mins after dosing): 39.8 ± 10.6 µg/mL
concentration at 85 min ([3]; 85 mins after dosing): 4.7 ± 1.4 µg/mL
Mice with lesion score 2 (Scab at infection site) ([4]; Day +4, single daily oral doses for seven days from 24 hours after infection): xxxxxxx
Mice with lesion score 1 (1° Vesicles) ([4]; Day +4, single daily oral doses for seven days): xxx
Mice with lesion score 5 (Severe spreading) [4, 8]: xxxxxxx
Mice with lesion score 7 (Death) [4, 8]: xx
Mice with lesion score 4 (Spreading) [4, 9]: xx
Mice with lesion score 5 (Severe spreading) [4, 9]: xxx
Mice with lesion score 7 (Death) [4, 9]: xxxx
concentration at 0.5 h ([2]; in vivo, Experiment 2, 30 mins after dosing, single dose, BVDU 100 mg/kg alone or with probenecid 100 or 200 mg/kg (dose in brackets in label), read-out: Concentration (µg/mL) in Serum BVDU): 26.1 µg/mL
concentration at 0.5 h ([2]; mouse, in vivo, 100 mg/kg, Experiment 1, 30 mins after dosing, single 100 mg/kg dose of BVDU, read-out: HPLC Determinations BVDU Conc (µg/mL) in serum): 38 µg/mL
concentration at 85 min ([2]; mouse, in vivo, 100 mg/kg, Experiment 1, 85 mins after dosing, single 100 mg/kg dose of BVDU, read-out: HPLC Determinations BVDU Conc (µg/mL) in serum): 3.9 µg/mL
concentration at 1.25 h [2, 10]: 13 µg/mL
concentration at 2 h [2, 10]: 3.6 µg/mL
detected in the urine [5]: only BVDU and none of the metabolite was detected in the urine
Virus titre (log10 p.f.u./ear) ([6]; Experiment A, day 1 post inoculation): 3.5 log10 p.f.u./ear
Virus titre (log10 p.f.u./ear) ([6]; Experiment A, day 2 post inoculation): 3.0 log10 p.f.u./ear
Virus titre (log10 p.f.u./ear) ([6]; Experiment A, day 3 post inoculation): 2.9 log10 p.f.u./ear
Virus titre (log10 p.f.u./ear) ([6]; Experiment A, day 4 post inoculation): 3.3 log10 p.f.u./ear
Virus titre (log10 p.f.u./ear) ([6]; Experiment A, day 7 post inoculation): 1.3 log10 p.f.u./ear
Virus titre (log10 p.f.u./ear) ([6]; Experiment B, day 1 post inoculation): 4.1 log10 p.f.u./ear
Virus titre (log10 p.f.u./ear) ([6]; Experiment B, day 2 post inoculation): 3.0 log10 p.f.u./ear
Virus titre (log10 p.f.u./ear) ([6]; Experiment B, day 3 post inoculation): 3.3 log10 p.f.u./ear
Virus titre (log10 p.f.u./ear) ([6]; Experiment B, day 4 post inoculation): 3.9 log10 p.f.u./ear
Virus titre (log10 p.f.u./ear) ([6]; Experiment B, day 7 post inoculation): 0 log10 p.f.u./ear
Difference in ear thickness between uninfected and infected ears (mm x 10^-2) ([6]; day 1 post inoculation): 10.1 mm x 10^-2
Difference in ear thickness between uninfected and infected ears (mm x 10^-2) ([6]; day 2 post inoculation): 14.2 mm x 10^-2
Difference in ear thickness between uninfected and infected ears (mm x 10^-2) ([6]; day 3 post inoculation): 13.4 mm x 10^-2
Difference in ear thickness between uninfected and infected ears (mm x 10^-2) ([6]; day 4 post inoculation): 15.1 mm x 10^-2
Difference in ear thickness between uninfected and infected ears (mm x 10^-2) ([6]; day 7 post inoculation): 20.7 mm x 10^-2
Difference in ear thickness between uninfected and infected ears (mm x 10^-2) ([6]; day 8 post inoculation): 20.8 mm x 10^-2
Difference in ear thickness between uninfected and infected ears (mm x 10^-2) ([6]; day 9 post inoculation): 20.2 mm x 10^-2
Difference in ear thickness between uninfected and infected ears (mm x 10^-2) ([6]; day 11 post inoculation): 16.1 mm x 10^-2
Difference in ear thickness between uninfected and infected ears (mm x 10^-2) ([6]; day 12 post inoculation): 14.0 mm x 10^-2
Difference in ear thickness between uninfected and infected ears (mm x 10^-2) ([6]; day 14 post inoculation): 10.1 mm x 10^-2
ear thickness ([6]; oral 3 times daily until day +4, BVDU 100mg/kg/dose or 1:2 mixture 100/200mg/kg/dose): no ettect
